Data reported in the NIST ThermoML archive (doi:10.1021/je700339f).

Test: xn = mol fraction of the nth substance listed
Conditions: 298 K, Liquid

ClCCCCCCCl [1,6-dichlorohexane] + CN(C)C=O
mass density [kg/m3]
Conditions	x2 = 0.0986	x2 = 0.2013	x2 = 0.3197	x2 = 0.4014	x2 = 0.5033	x2 = 0.6037	x2 = 0.7034	x2 = 0.8019	x2 = 0.9008
100 kPa	1056.4	1048.6	1038.2	1030.1	1019	1007.3	994.3	980	963.6
500 kPa	1056.6	1048.8	1038.4	1030.3	1019.3	1007.6	994.6	980.3	963.9
1000 kPa	–	1049.2	1038.8	1030.7	1019.6	1007.9	995	980.6	964.2
1100 kPa	1057.1	–	–	–	–	–	–	–	–
1500 kPa	1057.3	1049.6	1039.2	1031.1	1020	1008.2	995.3	980.9	964.5
2000 kPa	1057.7	1049.9	1039.5	1031.4	1020.3	1008.6	995.6	981.3	964.8
2500 kPa	1058	1050.2	1039.8	1031.7	1020.7	1008.9	995.9	981.6	965.1
2900 kPa	–	–	–	–	1021	–	–	–	–
3000 kPa	1058.4	1050.6	1040.2	1032.1	–	1009.2	996.3	981.9	965.4
3500 kPa	1058.7	1050.9	1040.5	1032.4	1021.3	1009.6	996.6	982.2	965.8
4000 kPa	1059.1	1051.3	1040.8	1032.8	1021.7	1009.9	996.9	982.6	966.1
4500 kPa	1059.4	1051.6	1041.2	1033.2	1022	1010.2	997.2	982.9	966.4
4900 kPa	–	–	–	–	–	–	–	983.2	–
5000 kPa	1059.8	1052	1041.5	1033.4	1022.3	1010.5	997.5	–	966.7
5500 kPa	1060.1	1052.3	1041.8	1033.8	1022.6	1010.9	997.8	983.5	967
5900 kPa	–	–	–	–	–	1011.2	–	–	–
6000 kPa	1060.4	1052.6	1042.2	1034.2	1023	–	998.2	983.9	967.3
6400 kPa	–	–	–	–	–	–	–	984.2	–
6500 kPa	1060.8	1053	1042.6	1034.5	1023.3	1011.5	998.5	–	967.7
6900 kPa	–	–	–	1034.8	–	–	–	–	967.8
7000 kPa	1061.1	1053.3	1042.9	–	1023.7	1011.9	998.8	984.5	–
7400 kPa	–	–	–	1035.1	–	–	–	–	–
7500 kPa	1061.5	1053.7	1043.2	–	1024	1012.2	999.1	984.8	968.2
7900 kPa	1061.8	–	–	–	–	–	–	–	–
8000 kPa	–	1054	1043.5	1035.5	1024.4	1012.6	999.5	985.1	968.5
8400 kPa	–	–	–	–	–	1012.8	–	985.4	968.8
8500 kPa	1062.2	1054.4	1043.8	1035.8	1024.6	–	999.8	–	–
8900 kPa	–	–	–	–	–	1013.1	–	–	–
9000 kPa	1062.5	1054.7	1044.2	1036.1	1025	–	1000.1	985.8	969.1
9400 kPa	–	–	–	–	–	–	–	–	969.4
9500 kPa	1062.8	1055.1	1044.5	1036.5	1025.3	1013.5	1000.4	986.1	–
10000 kPa	1063.1	1055.5	1044.9	1036.9	1025.7	1013.9	1000.8	986.4	969.8
10400 kPa	–	–	–	–	–	–	–	986.7	969.9
10500 kPa	1063.5	1055.8	1045.3	1037.2	1026	1014.2	1001.1	–	–
10900 kPa	1063.8	–	–	–	–	–	–	987	–
11000 kPa	–	1056.1	1045.5	1037.5	1026.4	1014.5	1001.4	–	970.3
11400 kPa	–	–	1045.8	–	–	1014.8	–	–	–
11500 kPa	1064.2	1056.4	–	1037.8	1026.7	–	1001.8	987.4	970.5
11900 kPa	–	–	–	–	–	1015.1	–	–	–
12000 kPa	1064.5	1056.8	1046.2	1038.2	1027	–	1002	987.6	970.8
12400 kPa	–	–	–	–	–	1015.4	–	–	971.1
12500 kPa	1064.9	1057.1	1046.5	1038.4	1027.3	–	1002.4	988	–
12900 kPa	1065.2	–	–	1038.8	–	–	–	–	–
13000 kPa	–	1057.4	1046.8	–	1027.6	1016	1002.7	988.2	971.3
13500 kPa	1065.5	1057.8	1047.2	1039.2	1028	1016.3	1003	988.6	971.6
13900 kPa	–	–	–	1039.5	–	–	–	–	–
14000 kPa	1065.8	1058.1	1047.5	–	1028.3	1016.6	1003.3	989	971.9
14400 kPa	–	–	–	–	–	1016.8	–	–	–
14500 kPa	–	1058.4	1047.8	1039.8	1028.6	–	1003.5	989.2	972.2
14600 kPa	1066.2	–	–	–	–	–	–	–	–
15000 kPa	1066.5	1058.7	1048.2	1040	1028.9	1017.3	1003.9	989.5	972.6
15400 kPa	–	–	–	–	1029.2	1017.6	–	–	–
15500 kPa	1066.9	1059	1048.6	1040.4	–	–	1004.2	989.8	972.8
15900 kPa	–	1059.3	–	1040.7	–	–	–	990.1	–
16000 kPa	1067.1	–	1048.8	–	1029.6	1018	1004.5	–	973.1
16400 kPa	–	1059.6	–	1041	–	–	–	–	–
16500 kPa	1067.4	–	1049	–	1030	1018.2	1004.8	990.4	973.4
17000 kPa	1067.8	1060	1049.4	1041.4	1030.3	1018.5	1005.1	990.7	973.7
17500 kPa	1068.2	1060.3	1049.7	1041.7	1030.5	1018.8	1005.4	990.9	974
17900 kPa	–	–	1050	–	–	–	–	991.2	–
18000 kPa	1068.5	1060.6	–	1042	1030.9	1019.1	1005.6	–	974.3
18500 kPa	1068.8	1060.9	1050.3	1042.3	1031.2	1019.4	1005.9	991.5	974.7
19000 kPa	1069.2	1061.2	1050.7	1042.6	1031.5	1019.8	1006.3	991.9	975.1
19400 kPa	–	1061.5	–	–	–	–	–	–	–
19500 kPa	1069.5	–	1051	1042.9	1031.8	1020.1	1006.6	992.2	975.4
20000 kPa	1069.8	1062	1051.5	1043.2	1032.2	1020.5	1007	992.5	975.8
